Laboratory results taken from paper PMC11077815, “Synthesis and antitumor activity of dolutegravir derivatives bearing 1,2,3-triazole moieties” (BMC Chemistry, 2024).

Legend:
Type in all cases: cell-based, Human
[1] = system: CyclinE; assay: Western blot of CyclinE in PC-9 cells; conditions: PC-9, 0, 2, 4, 8 µM, 48 h
Excerpt: (§1) To determine the role of compounds 9e and 9p on regulating the development of cell proliferation, expressions of key proteins which were involved in cell growth progresses such as autophagy, apoptosis, cell cycle and DNA damage were examined. Ubiquitin like molecule light chain 3 (LC3) is a key marker of autophagy. […] Caspase3, which is one of the key proteins in regulating apoptosis, however, was not changed in tumor cells after treated with 9e or 9p. Cell cycle regulation proteins such as CyclinD, CyclinE or β-catenin were also not affected when PC-9 was treated with 9e or 9p. Further, H2AX variant histone (γ-H2AX), which was responsible for DNA damage, was also not affected when PC-9 were treated with 9e or 9p.
(§2) Protein expression levels were measured by western blot. PC-9 cells were cultured in 12-well plates and different concentrations (0, 2, 4, 8µM) of 9e and 9p were added for 48 h. Proteins were extracted from whole cells using radioimmunoprecipitation assay (RIPA). Buffer containing protease/phosphatase inhibitor cocktail (CST). Sodium dodecyl sulfate (10-15%) polyacrylamide gel electrophoresis and nitrocellulose membranes (Millipore) were used to separate and collect proteins. Antibodies used include, LC3 (3868s, CST), Caspase3 (9662, CST), cyclin D (2922s, CST), cyclin E (20808s, CST), γ-H2AX (9718s, CST), and β-actin (4967s, CST).

[2] = system: β-catenin; assay: Western blot of β-catenin in PC-9 cells; conditions: PC-9, 0, 2, 4, 8 µM, 48 h
Excerpt: as §1, §2

[3] = system: PC-9; assay: Apoptosis assay (Annexin V-FITC/PI flow cytometry), PC-9; conditions: 48 h
Method: Further, the effects of 9e and 9p on the apoptosis of tumor cells were studied to get details of the suppression of cell proliferation caused by these compounds. PC-9 and H460 cells treated with different concentrations of 9e or 9p were stained with Annexin V-FITC and PI, and the numbers of apoptosis cells were analyzed by the flow cytometry.
PC-9 and H460 cells were cultured in 6-well plates with a density of 3 × 10^5 cells/well. Different concentrations of 9e or 9p were added to cells for 48 h respectively. The concentrations were 0, 2, 4, and 8 µM for PC-9 cells and 0, 4, 8 and 16 µM for H460 cells. After treatment, Annexin V-FITC Apoptosis Detection Kit was used to determine the apoptotic ratio and FlowJo software v10 was used to analyze of the results.

[4] = system: PC-9; assay: CCK8 cell viability assay, PC-9; conditions: for Cell viability (100%): PC9, 20 µM, 48 h, CCK8, control = 100%; for IC50: PC9, 48 h, CCK8, mean ± SE
Method: (§3) At first, CCK8 assay was carried out to evaluate the anti-proliferative activity of dolutegravir-1,2,3-triazole derivatives against different cancer cell lines. The results of cell viability of three lung cancer cell lines A549, PC-9 and H460 in the presence of compounds 9 and 10 are summarized in Table 2. Cells were treated with different compounds at the concentration of 20 µM for 48 h. […] Human lung cancer cell lines A549, PC-9 and H460 were all obtained from ATCC. Cells were cultured in DMEM or RPMI 1640 medium containing 10% FBS and 1% penicillin/streptomycin at 37 °C with a 5% CO2-humidified atmosphere. CCK8 assay was used to measure cell viability. Cells with a density of 1 × 10^4 cells/well were seeded on the 96-well plates. After adhesion, cells were treated with different diluted compounds or vehicle control DMSO and continue cultured for 48 h. Then, CCK8 reagent was added for one hour incubation at 37 °C with 5% of CO2. Absorbance was measured using a microplate spectrophotometer (Thermo) at 450 nm. The ratio of cell viability of control was taken as 100%. […] Then IC50 of the compounds were investigated using the prism statistical software.

[5] = system: A549; assay: CCK8 cell viability assay, A549; conditions: for Cell viability (100%): A549, 20 µM, 48 h, CCK8, control = 100%; for IC50: A549, 48 h, CCK8, mean ± SE
Method: as §3

[6] = system: H460; assay: Cellular ROS measurement (DCFH-DA), H460; conditions: H460, 5 µM and 10 µM, 24 h, DCFH-DA staining
Method: Reactive oxygen species could induce cell death and suppress cell growth and proliferation. To assess the role of compounds 9e and 9p in ROS generation, different cancer cell lines were treated with 9e or 9p for 24 h. DCFDA was used to stain cells and ROS was detected with fluorescent microscope.
PC-9 and H460 cells were cultured in 96-well plates in a density of 5 × 10^3 cells/well. Different concentrations (0, 5 and 10 µM) of 9e or 9p were added to cells respectively for 24 h. After treatment, cells were stimulated with 10 µM DCFH-DA for 30 min at 37 °C, then observed and photographed using a fluorescent microscope.

[7] = system: H460; assay: CCK8 cell viability assay, H460; conditions: for Cell viability (100%): H460, 20 µM, 48 h, CCK8, control = 100%; for IC50: H460, 48 h, CCK8, mean ± SE
Method: as §3

[8] = system: CyclinD; assay: Western blot of CyclinD in PC-9 cells; conditions: PC-9, 0, 2, 4, 8 µM, 48 h
Excerpt: as §1, §2

COc1c2n(cc(C(=O)Nc3cccc(-c4cn(-c5cccc([N+](=O)[O-])c5C)nn4)c3)c1=O)C[C@@H]1OCC[C@@H](C)N1C2=O [Compound 9e]
CyclinE expression [1]: not affected | β-catenin expression [2]: not affected | cell apoptosis ([3]; PC-9, 2 µM or 4 µM): little influence | cell apoptosis ([3]; PC-9, 8 µM): significant effects on cell apoptosis | Cell viability (100%) [4]: 24.05% | IC50 [4]: 3.83 ± 0.73 µM | Cell viability (100%) [5]: 9.14% | IC50 [5]: 8.72 ± 0.11 µM | ROS generation [6]: significantly increased | Cell viability (100%) [7]: 30.94% | IC50 [7]: 11.8 ± 2.31 µM | CyclinD expression [8]: not affected

COc1c2n(cc(C(=O)Nc3cccc(-c4cn(-c5cccc(C(F)(F)F)c5)nn4)c3)c1=O)C[C@@H]1OCC[C@@H](C)N1C2=O [Compound 9p]
CyclinE expression [1]: not affected | β-catenin expression [2]: not affected | cell apoptosis ([3]; PC-9, 2 µM or 4 µM): little influence | cell apoptosis ([3]; PC-9, 8 µM): significant effects on cell apoptosis | Cell viability (100%) [4]: 2.11% | IC50 [4]: 3.17 ± 0.18 µM | Cell viability (100%) [5]: 10.85% | IC50 [5]: 13 ± 0.32 µM | ROS generation [6]: significantly increased | Cell viability (100%) [7]: 5.63% | IC50 [7]: 10.7 ± 0.48 µM | CyclinD expression [8]: not affected
